Data reported in ChEMBL document CHEMBL1201862, “PubChem BioAssay data set” (2004).
The source made the active and inactive calls.

Tests used:
[1] = viability of uninfected HEp-2 cells – cell-based, HTS, cytotoxicity control for RSV inhibitor project, dose response (AID 2410); assay type: functional; conditions: human respiratory syncytial virus
Cytochrome P450 2D6 = Cytochrome P450 2D6 (Homo sapiens, UniProt P10635);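 further: CYP2D6 member of a cytochrome P450 panel assay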
Cytochrome P450 2C19 = Cytochrome P450 2C19 (Homo sapiens, UniProt P33261); test: Cytochrome panel assay with activity outcomes. Panel member name: p450-cyp2c19 Compounds with AC50 equal or less than 10 uM are considered active; assay type: functional; conditions: read-out: AC50
Sequence of Cytochrome P450 2C19 (P33261 whole entry): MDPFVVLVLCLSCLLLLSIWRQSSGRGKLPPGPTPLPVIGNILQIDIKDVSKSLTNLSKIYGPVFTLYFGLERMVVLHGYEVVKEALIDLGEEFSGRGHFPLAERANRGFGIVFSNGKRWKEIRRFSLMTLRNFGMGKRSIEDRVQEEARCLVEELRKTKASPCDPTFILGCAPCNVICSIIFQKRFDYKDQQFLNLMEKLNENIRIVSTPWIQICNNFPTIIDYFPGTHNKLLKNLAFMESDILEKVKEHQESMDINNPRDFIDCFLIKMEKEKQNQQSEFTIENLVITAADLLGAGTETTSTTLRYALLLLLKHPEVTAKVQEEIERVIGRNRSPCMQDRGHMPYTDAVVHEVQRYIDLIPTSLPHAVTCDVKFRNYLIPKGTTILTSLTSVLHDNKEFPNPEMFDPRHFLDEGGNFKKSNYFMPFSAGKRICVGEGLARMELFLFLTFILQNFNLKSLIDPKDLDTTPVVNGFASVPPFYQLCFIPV

Cytochrome P450 2C9 = Cytochrome P450 2C9 (Homo sapiens, UniProt P11712)
Sequence of Cytochrome P450 2C9 (P11712 whole entry): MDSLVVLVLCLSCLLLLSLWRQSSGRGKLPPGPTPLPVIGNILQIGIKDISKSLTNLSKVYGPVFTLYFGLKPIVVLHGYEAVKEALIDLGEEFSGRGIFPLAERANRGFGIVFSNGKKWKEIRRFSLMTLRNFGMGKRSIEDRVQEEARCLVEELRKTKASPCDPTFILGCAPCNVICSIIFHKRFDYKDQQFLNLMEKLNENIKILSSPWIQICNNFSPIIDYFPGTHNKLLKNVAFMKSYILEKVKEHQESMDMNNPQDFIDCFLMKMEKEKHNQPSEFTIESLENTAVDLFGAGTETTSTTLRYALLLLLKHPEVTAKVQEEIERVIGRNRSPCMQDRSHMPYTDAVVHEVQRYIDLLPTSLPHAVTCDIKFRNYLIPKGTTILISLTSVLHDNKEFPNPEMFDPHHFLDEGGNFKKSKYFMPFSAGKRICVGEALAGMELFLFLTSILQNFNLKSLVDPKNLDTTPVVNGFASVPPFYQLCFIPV

Streptokinase A = target: T1, Streptokinase A (Streptococcus pyogenes serotype M1, UniProt P10520); test: viability-normalized secreted streptokinase activity reduction – plasminogen activation absorbance, OD405, dose response (AID 1914); assay type: functional, Streptococcus pyogenes M1 GAS;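 further: secreted streptokinase activity via plasminogen activation per viability signal from cell pellet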
T1 sequence (P10520 whole entry): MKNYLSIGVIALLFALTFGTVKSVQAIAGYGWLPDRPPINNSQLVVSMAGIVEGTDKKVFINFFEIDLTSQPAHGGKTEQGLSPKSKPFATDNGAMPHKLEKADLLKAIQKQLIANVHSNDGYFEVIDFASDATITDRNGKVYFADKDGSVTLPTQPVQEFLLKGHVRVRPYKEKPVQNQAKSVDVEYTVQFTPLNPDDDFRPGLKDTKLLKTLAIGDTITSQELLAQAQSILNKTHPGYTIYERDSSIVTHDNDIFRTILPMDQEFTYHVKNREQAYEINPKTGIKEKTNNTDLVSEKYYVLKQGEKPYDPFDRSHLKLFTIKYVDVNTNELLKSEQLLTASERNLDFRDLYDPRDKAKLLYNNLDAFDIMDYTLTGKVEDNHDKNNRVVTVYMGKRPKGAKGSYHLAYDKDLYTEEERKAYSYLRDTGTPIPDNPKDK

[2] = test system: Streptococcus sp. 'group A'; test: Streptococcus pyogenes SK(-)GAS viability under kanamycin – luminescence, BacTiterGlo, confirmation, counter-screen for streptokinase expression inhibitor project, dose response (AID 1900); assay type: functional, organism-based
Streptococcus = test: GAS UMAA2166 growth inhibition – luminescence, BacTiterGlo, counter-screen for streptokinase expression inhibitor project, dose response (AID 1915); assay type: functional, organism-based;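 further: potency for reduction of bacterial viability or growth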
[3] = target: T2, Rac GTPase-activating protein 1 (Homo sapiens, UniProt Q9H0H5); test: blockers of MgcRacGAP-driven Rac1 GTP hydrolysis – biochemical, ADP Hunter fluorescence, primary and confirmatory, confirmation (AID 624330); assay type: functional
T2 sequence (Q9H0H5 whole entry): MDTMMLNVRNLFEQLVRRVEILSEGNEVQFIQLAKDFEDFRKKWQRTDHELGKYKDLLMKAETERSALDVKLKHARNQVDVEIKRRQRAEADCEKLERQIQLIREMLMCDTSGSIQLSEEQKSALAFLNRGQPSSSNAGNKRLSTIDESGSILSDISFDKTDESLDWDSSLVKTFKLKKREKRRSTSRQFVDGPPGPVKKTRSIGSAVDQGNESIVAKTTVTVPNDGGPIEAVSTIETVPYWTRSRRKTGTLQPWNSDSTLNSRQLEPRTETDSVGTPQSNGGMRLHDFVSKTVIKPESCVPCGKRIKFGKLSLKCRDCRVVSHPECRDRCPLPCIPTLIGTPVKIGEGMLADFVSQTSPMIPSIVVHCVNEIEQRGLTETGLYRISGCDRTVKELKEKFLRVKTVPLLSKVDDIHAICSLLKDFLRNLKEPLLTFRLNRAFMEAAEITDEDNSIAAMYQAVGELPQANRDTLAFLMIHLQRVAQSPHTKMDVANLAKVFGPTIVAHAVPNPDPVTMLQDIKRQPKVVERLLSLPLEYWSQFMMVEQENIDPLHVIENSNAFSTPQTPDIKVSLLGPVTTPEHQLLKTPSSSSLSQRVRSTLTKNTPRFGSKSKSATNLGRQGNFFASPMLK

[4] = Trypanosoma cruzi growth suppression in host cells – NIH3T3 host cells, beta-gal luminescence, confirmation (AID 2044); assay type: functional, cell-based;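 further: intracellular parasites grown in NIH/3T3 mouse fibroblasts as host cells; luminescent beta-galactosidase reporter signal from transgenic T. cruzi replicating inside host cells; inhibitors lower the luminescence signal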
[5] = NIH3T3 cell viability loss – ATP luminescence, mouse fibroblasts, counter-screen, dose response (AID 2010); assay type: functional, cell-based;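 further: cells exposed to compound for about 90 hours before reading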
Cytochrome P450 3A4 = Cytochrome P450 3A4 (Homo sapiens, UniProt P08684);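 further: CYP3A4 tested as one member of a cytochrome P450 panel screen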
Sequence of Cytochrome P450 3A4 (P08684 whole entry): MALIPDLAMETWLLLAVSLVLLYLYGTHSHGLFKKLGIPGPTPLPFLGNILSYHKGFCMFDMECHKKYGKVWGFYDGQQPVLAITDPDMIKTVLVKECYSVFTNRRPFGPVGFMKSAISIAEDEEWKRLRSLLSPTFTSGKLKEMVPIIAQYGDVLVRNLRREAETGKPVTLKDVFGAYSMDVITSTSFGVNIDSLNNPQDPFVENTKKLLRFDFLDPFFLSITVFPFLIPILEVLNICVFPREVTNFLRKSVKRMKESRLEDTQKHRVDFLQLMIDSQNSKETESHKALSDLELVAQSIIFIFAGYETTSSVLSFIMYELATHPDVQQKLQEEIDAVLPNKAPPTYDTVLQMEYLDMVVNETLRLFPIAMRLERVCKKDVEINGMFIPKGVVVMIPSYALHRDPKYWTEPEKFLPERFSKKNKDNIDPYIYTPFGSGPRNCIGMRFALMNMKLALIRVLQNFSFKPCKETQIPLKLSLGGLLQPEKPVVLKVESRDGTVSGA

[6] = target: T3, Replicative DNA helicase DnaB (Mycobacterium tuberculosis, UniProt P9WMR3); test: DnaB intein splicing inhibitors, dose response, biochemical, cell-free fluorescence (AID 449749); assay type: functional
T3 sequence (P9WMR3 whole entry): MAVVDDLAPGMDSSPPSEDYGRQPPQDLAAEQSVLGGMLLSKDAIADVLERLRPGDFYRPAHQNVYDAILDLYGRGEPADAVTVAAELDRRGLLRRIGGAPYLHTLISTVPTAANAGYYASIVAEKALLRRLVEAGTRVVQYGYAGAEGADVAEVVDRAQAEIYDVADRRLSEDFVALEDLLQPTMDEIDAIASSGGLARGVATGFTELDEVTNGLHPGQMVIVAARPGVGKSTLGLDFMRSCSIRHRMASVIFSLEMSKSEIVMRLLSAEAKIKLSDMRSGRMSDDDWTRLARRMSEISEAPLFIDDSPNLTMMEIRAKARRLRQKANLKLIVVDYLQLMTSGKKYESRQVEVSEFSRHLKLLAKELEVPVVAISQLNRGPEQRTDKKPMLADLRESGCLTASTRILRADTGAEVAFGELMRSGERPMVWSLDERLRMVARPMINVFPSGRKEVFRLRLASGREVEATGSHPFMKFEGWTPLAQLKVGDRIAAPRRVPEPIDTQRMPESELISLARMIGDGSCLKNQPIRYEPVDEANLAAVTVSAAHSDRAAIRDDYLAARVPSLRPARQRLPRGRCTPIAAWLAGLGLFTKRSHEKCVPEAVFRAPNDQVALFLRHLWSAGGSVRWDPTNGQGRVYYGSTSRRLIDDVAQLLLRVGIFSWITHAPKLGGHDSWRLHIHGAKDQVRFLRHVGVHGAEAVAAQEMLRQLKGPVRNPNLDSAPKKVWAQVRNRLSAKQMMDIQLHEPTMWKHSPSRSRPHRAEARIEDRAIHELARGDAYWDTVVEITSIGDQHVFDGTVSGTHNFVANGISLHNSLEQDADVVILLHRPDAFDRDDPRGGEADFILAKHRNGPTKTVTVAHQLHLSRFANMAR

Protein RecA = target: T4, Protein RecA (Mycobacterium tuberculosis, UniProt P9WHJ3); test: Fluorescence Cell-Free Homogeneous Dose Retest to Identify Inhibitors of RecA-Intein Splicing Activity. [Related pubchem assays (depositor defined):AID2097, AID2223, AID489010, AID492950]; assay type: functional
T4 sequence (P9WHJ3 whole entry): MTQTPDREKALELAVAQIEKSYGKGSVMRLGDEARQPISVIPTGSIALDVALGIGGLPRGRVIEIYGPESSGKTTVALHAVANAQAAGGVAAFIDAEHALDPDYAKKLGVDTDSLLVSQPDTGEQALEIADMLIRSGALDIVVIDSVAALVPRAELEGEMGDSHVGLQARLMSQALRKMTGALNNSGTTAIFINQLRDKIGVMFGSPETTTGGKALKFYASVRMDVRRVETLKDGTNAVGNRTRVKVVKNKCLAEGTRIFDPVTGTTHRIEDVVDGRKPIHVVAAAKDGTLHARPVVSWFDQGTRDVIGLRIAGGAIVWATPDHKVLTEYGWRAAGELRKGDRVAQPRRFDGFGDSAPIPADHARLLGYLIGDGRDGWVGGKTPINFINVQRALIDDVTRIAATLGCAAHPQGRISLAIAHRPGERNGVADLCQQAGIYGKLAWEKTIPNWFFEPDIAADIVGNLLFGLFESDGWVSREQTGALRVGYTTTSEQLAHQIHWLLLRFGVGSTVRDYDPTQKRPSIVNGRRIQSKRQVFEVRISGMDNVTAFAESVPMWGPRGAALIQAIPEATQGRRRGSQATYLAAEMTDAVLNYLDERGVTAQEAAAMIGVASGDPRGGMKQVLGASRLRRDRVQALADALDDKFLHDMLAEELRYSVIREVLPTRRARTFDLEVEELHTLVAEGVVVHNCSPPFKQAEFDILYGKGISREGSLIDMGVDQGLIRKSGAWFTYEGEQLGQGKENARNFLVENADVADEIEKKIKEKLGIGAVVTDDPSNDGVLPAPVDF

Sequence of Cytochrome P450 2D6 (P10635 whole entry): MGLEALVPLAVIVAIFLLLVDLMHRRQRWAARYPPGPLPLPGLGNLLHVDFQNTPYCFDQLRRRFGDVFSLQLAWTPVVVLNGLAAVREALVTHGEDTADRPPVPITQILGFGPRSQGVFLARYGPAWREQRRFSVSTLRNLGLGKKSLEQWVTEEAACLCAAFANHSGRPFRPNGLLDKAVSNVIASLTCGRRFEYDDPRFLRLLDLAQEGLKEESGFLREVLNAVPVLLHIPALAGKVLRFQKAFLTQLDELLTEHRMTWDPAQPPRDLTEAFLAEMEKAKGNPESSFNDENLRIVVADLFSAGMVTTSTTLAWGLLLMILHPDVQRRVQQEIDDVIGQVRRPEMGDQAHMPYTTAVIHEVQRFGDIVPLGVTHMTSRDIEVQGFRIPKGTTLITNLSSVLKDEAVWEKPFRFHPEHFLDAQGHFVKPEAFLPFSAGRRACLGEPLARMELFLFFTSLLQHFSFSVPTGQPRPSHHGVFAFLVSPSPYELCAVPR

## O=C(Cc1cccs1)Nc1cccc(-c2nnc(-c3ccco3)o2)c1
[1]
  CC50: > 12.5 µM (active)

## O=C(Nc1cccc(F)c1)N1CC2(CCN(S(=O)(=O)c3ccccc3)CC2)C1
Cytochrome P450 2D6
  AC50: 39.8 µM (inconclusive)
Cytochrome P450 2C19
  AC50: 15.8 µM (inconclusive)
Cytochrome P450 2C9
  AC50: 20 µM (inconclusive)

## COC(=O)CSc1nnc(-c2cnccn2)n1C
Streptokinase A
  EC50: > 150 µM (not active)
[2]
  EC50: > 150 µM (not active)
Streptococcus
  EC50: > 150 µM (not active)

## Cc1ccc2nc(-c3ccc(NS(=O)(=O)c4ccc(F)c(F)c4)cc3)sc2c1
Streptokinase A
  EC50: 5.1 µM (active)
[2]
  EC50: 2.65 µM (active)
Streptococcus
  EC50: 5.92 µM (active)

## COc1ccc(C2CC(c3ccccc3)=NN2c2ccc(S(N)(=O)=O)cc2)cc1OC (stereo not drawn)
[1]
  CC50: 24.2 µM (active)

## CCOc1cc(/C=N/NC(=O)C(=O)NCc2cccnc2)ccc1O
[3]
  IC50: 54.5 µM (active)

## COC(=O)C1=C(C)N(CC2CCCO2)C(=O)/C1=C\c1ccc(O)cc1 (stereo not drawn)
[3]
  IC50: 25 µM (active)

## CC1=NN(C(=Nc2ccc(C(C)(C)C)cc2)Nc2nnc(C)s2)[C@H](c2ccc(C)cc2)S1
Streptokinase A
  EC50: 13.9 µM (active)
[4]
  EC50: 1.85 µM (active)
[2]
  EC50: 8.28 µM (active)
[5]
  EC50: > 60 µM (not active)
Streptococcus
  EC50: > 150 µM (not active)

## O=C(Nc1cc(Cl)cc(Cl)c1)Nc1cnccn1
Streptokinase A
  EC50: > 150 µM (not active)
[2]
  EC50: 7.66 µM (active)
Streptococcus
  EC50: > 150 µM (not active)

## Cc1ccc(C2=C(Cl)C(=O)C(c3ccc(C)cc3)=C(Cl)C2=O)cc1
Cytochrome P450 2D6
  AC50: 3.98 µM (inconclusive)
Cytochrome P450 2C19
  AC50: 3.98 µM (inconclusive)

## CCOC(=O)C1=C(O)c2ccccc2C(=O)/C1=C\c1ccc(C)cc1
[1]
  CC50: 31.5 µM (active)

## COc1ccccc1-c1nc(NCCN2CCOCC2)c2ccccc2n1
Cytochrome P450 3A4
  AC50: 31.6 µM (inconclusive)
Cytochrome P450 2D6
  AC50: 31.6 µM (inconclusive)

## O=C(Nc1cccc(-c2nnc(-c3ccccc3)o2)c1)c1ccc(Br)o1
Streptokinase A
  EC50: > 150 µM (not active)
[2]
  EC50: 9.53 µM (active)
Streptococcus
  EC50: 14.2 µM (active)

## COc1cccc(/C=N/NC(=O)c2cc(-c3cccn3C)[nH]n2)c1
Cytochrome P450 2D6
  AC50: 0.00794 µM (inconclusive)

## Oc1ccccc1-[n+]1c(-c2ccccc2)cc(-c2ccccc2)cc1-c1ccccc1.[O-][Cl+3]([O-])([O-])[O-]
[1]
  CC50: 11.7 µM (active)

## CN(C)c1ccc(-c2ccc3ncnc(NCc4ccccc4)c3c2)cc1
Cytochrome P450 2D6
  AC50: 12.6 µM (inconclusive)

## Cc1cc2oc(=O)cc(CN(C)Cc3ccccc3Cl)c2cc1C
Streptokinase A
  EC50: 14.4 µM (active)
[2]
  EC50: 20.8 µM (active)
Streptococcus
  EC50: > 150 µM (not active)

## C[C@@H]1CC[C@@]2(OC1)O[C@H]1C[C@H]3[C@@H]4CC=C5C[C@@H](O)[C@H](O)C[C@]5(C)C4CC[C@]3(C)[C@H]1[C@@H]2C (stereo partly drawn)
Streptokinase A
  EC50: > 150 µM (not active)
[2]
  EC50: 4.77 µM (active)
Streptococcus
  EC50: 16.4 µM (active)

## O=C(NC(=S)Nc1ccc(Br)cn1)c1cncc(Br)c1
Cytochrome P450 2D6
  AC50: 0.631 µM (inconclusive)
Cytochrome P450 2C19
  AC50: 35.5 µM (inconclusive)
Cytochrome P450 2C9
  AC50: 0.447 µM (inconclusive)

## COc1ccccc1NS(=O)(=O)c1cccc(C(=O)OCC(=O)Nc2cc(C)on2)c1
Cytochrome P450 2D6
  AC50: 31.6 µM (inconclusive)
Cytochrome P450 2C9
  AC50: 12.6 µM (inconclusive)

## O=C1NC(=Nc2ccccn2)SC1Cc1ccc(Cl)cc1 (stereo not drawn)
Streptokinase A
  EC50: > 150 µM (not active)

## O=C(c1cc(S(=O)(=O)N2CCOCC2)ccc1F)N(CCc1ccccc1)Cc1ccccc1
[1]
  CC50: 29.8 µM (active)

## O=C(CSc1nnc(-c2ccccn2)n1Cc1ccco1)c1ccc(-c2ccccc2)cc1
[1]
  CC50: 34.3 µM (active)

## CN1c2ccccc2C(C)(C)[C@]12C=Cc1cc(O)ccc1O2
[1]
  CC50: 7.32 µM (active)

## COCCn1c(N)c(C(=O)NS(=O)(=O)c2ccc(C)cc2)c(=O)[nH]c1=O
Streptokinase A
  EC50: > 150 µM (not active)
[2]
  EC50: > 150 µM (not active)
Streptococcus
  EC50: > 150 µM (not active)

## Clc1ccccc1-c1nc(Nc2ccncc2)c2ccccc2n1
Cytochrome P450 2D6
  AC50: 39.8 µM (inconclusive)
Cytochrome P450 2C9
  AC50: 1.58 µM (inconclusive)

## Cc1ccccc1-c1nccc(Nc2ccc(F)cc2)n1
Cytochrome P450 2D6
  AC50: 20 µM (inconclusive)

## CCC1=NN2C(=N)/C(=C/c3ccc(OS(=O)(=O)c4ccccc4)cc3)C(=O)N=C2S1
[1]
  CC50: > 50 µM (active)

## CC(=O)NCCn1c(SCC(=O)NCc2ccco2)nc2ccccc2c1=O
[6]
  AC50: 7.22 µM (active)
Protein RecA
  EC50: 9.17 µM (active)
Cytochrome P450 2D6
  AC50: 0.0447 µM (inconclusive)
Cytochrome P450 2C9
  AC50: 25.1 µM (inconclusive)

## Brc1ccc(-c2cn3c(n2)CCc2ccc4cccnc4c2-3)cc1
Streptokinase A
  EC50: 23.8 µM (active)
[2]
  EC50: 4.51 µM (active)
Streptococcus
  EC50: > 150 µM (not active)

## OCCCn1c(C(CO)Nc2nc(-c3ccc(Cl)cc3)cs2)nc2ccccc21 (stereo not drawn)
[1]
  CC50: 15.5 µM (active)

## Cc1ccc2nc(Nc3ccc(Cl)cc3)c3nncn3c2c1
[1]
  CC50: 34.4 µM (active)
